Several values for one entry are separate records, joined by “and”; a condition that tells them apart may be missing. Equal entries are not always repeated. Toxic doses and inconclusive results are not listed.
Tested on: BDF1 mice, P388 leukemia ip, median survival T/C
Assay: NCI In Vivo Anticancer Drug Screen. Data for tumor model P388 Leukemia (intraperitoneal) in B6D2F1 (BDF1) mice
Details: endpoint: median survival time, higher = longer survival
Experimental: The antitumor activity of compounds was measured in mice bearing transplantable tumors. Survival or tumor size were measured and the results are expressed as the measurement made in the treated group (T) divided by the measurement made in the vehicle treated control group (C). The tumor model used in this assay is P388 Leukemia (intraperitoneal) in B6D2F1 (BDF1) mice

[1] = dose: 100.0 mg/kg/injection, schedule: Q01DX009 (ip), vehicle: Klucel (hydroxypropylcellulose) (HPC)
[2] = dose: 100.0 mg/kg/injection, schedule: Q01DX009 (ip), vehicle: saline
[3] = dose: 100.0 mg/kg/injection, schedule: Q04DX003 (ip), vehicle: Klucel (hydroxypropylcellulose) (HPC)
[4] = dose: 200.0 mg/kg/injection, schedule: Q01DX009 (ip), vehicle: Klucel (hydroxypropylcellulose) (HPC)
[5] = dose: 200.0 mg/kg/injection, schedule: Q01DX009 (ip), vehicle: saline
[6] = dose: 200.0 mg/kg/injection, schedule: Q04DX003 (ip), vehicle: Klucel (hydroxypropylcellulose) (HPC)
[7] = dose: 400.0 mg/kg/injection, schedule: Q01DX009 (ip), vehicle: Klucel (hydroxypropylcellulose) (HPC)
[8] = dose: 400.0 mg/kg/injection, schedule: Q01DX009 (ip), vehicle: saline
[9] = dose: 400.0 mg/kg/injection, schedule: Q04DX003 (ip), vehicle: Klucel (hydroxypropylcellulose) (HPC)
[10] = dose: 50.0 mg/kg/injection, schedule: Q01DX009 (ip), vehicle: saline with Tween-80
[11] = dose: 100.0 mg/kg/injection, schedule: Q01DX009 (ip), vehicle: saline with Tween-80
[12] = dose: 200.0 mg/kg/injection, schedule: Q01DX009 (ip), vehicle: saline with Tween-80
[13] = dose: 100.0 mg/kg/injection, schedule: Q04DX003 (ip), vehicle: saline with Tween-80
[14] = dose: 200.0 mg/kg/injection, schedule: Q04DX003 (ip), vehicle: saline with Tween-80
[15] = dose: 100.0 mg/kg/injection, schedule: Q04DX003 (ip), vehicle: saline
[16] = dose: 200.0 mg/kg/injection, schedule: Q04DX003 (ip), vehicle: saline
[17] = dose: 400.0 mg/kg/injection, schedule: Q04DX003 (ip), vehicle: saline
[18] = dose: 50.0 mg/kg/injection, schedule: Q01DX009 (ip), vehicle: Klucel (hydroxypropylcellulose) (HPC)
[19] = dose: 50.0 mg/kg/injection, schedule: Q01DX009 (ip), vehicle: saline
[20] = dose: 50.0 mg/kg/injection, schedule: Q04DX003 (ip), vehicle: Klucel (hydroxypropylcellulose) (HPC)
[21] = dose: 12.5 mg/kg/injection, schedule: Q01DX009 (ip), vehicle: saline
[22] = dose: 25.0 mg/kg/injection, schedule: Q01DX009 (ip), vehicle: saline

For `COc1ccc(C(=O)c2cc(OC)c(OC)c(OC)c2)cc1OC`, the T/C [1] was 92 % of control, the T/C [2] was 109 % of control and the T/C [3] was 95 % of control. For the same molecule, the T/C [4] was 107 % of control, the T/C [5] was 113 % of control and the T/C [6] was 104 % of control. The T/C [7] was 107 % of control, the T/C [8] was 122 % of control and the T/C [9] was 95 % of control.

`Cc1ccc(N2C(=O)CSC2=S)cc1` was tested, and the T/C [10] was 105 % of control, the T/C [11] was 95 % of control and the T/C [12] was 95 % of control.

With `Cn1nc(NC(=O)C(F)(F)F)c2ncc(-c3ccccc3)nc21` the T/C (dose: 50.0 mg/kg/injection, schedule: Q04DX003 (ip), vehicle: saline with Tween-80) was 105 % of control, the T/C [13] was 100 % of control and the T/C [14] was 100 % of control.

With `O=C(O)c1csc(-c2csc(CCNC(=O)C(F)(F)F)n2)n1` the T/C [10] was 94 % of control, the T/C [11] was 93 % of control and the T/C [12] was 103 % of control.

For `C[C@]12CC[C@@H]3c4ccc(OC5CCCCO5)cc4CC[C@H]3[C@@H]1CC[C@@H]2O` (some centres undefined), the T/C [2] was 105 % of control, the T/C [15] was 100 % of control and the T/C [5] was 95 % of control. For the same molecule, the T/C [16] was 100 % of control and the T/C [17] was 100 % of control.

For `CC(=O)C(C#N)c1ccccc1` (centres undefined), the T/C (dose: 12.5 mg/kg/injection, schedule: Q01DX009 (ip), vehicle: Klucel (hydroxypropylcellulose) (HPC)) was 118 % of control, the T/C (dose: 25.0 mg/kg/injection, schedule: Q01DX009 (ip), vehicle: Klucel (hydroxypropylcellulose) (HPC)) was 109 % of control and the T/C [18] was 90 % of control.

With `COCC12CCC(OC)C34C5CC6(O)C(OC)CC(OC(C)=O)(C5C6OC(=O)c5ccccc5)C(C(OC)C13)C4N(C)C2` (centres undefined) the T/C (dose: 0.13 mg/kg/injection, schedule: Q01DX009 (ip), vehicle: Klucel (hydroxypropylcellulose) (HPC)) was 93 % of control, the T/C (dose: 0.25 mg/kg/injection, schedule: Q01DX009 (ip), vehicle: Klucel (hydroxypropylcellulose) (HPC)) was 88 % of control and the T/C (dose: 0.5 mg/kg/injection, schedule: Q01DX009 (ip), vehicle: Klucel (hydroxypropylcellulose) (HPC)) was 102 % of control. The T/C (dose: 1.0 mg/kg/injection, schedule: Q01DX009 (ip), vehicle: Klucel (hydroxypropylcellulose) (HPC)) was 102 % of control.

In the case of `COC1=CCC23C(=O)C=CC(=O)C2(C1)C(=O)c1ccccc1C3=O` (centres undefined), the T/C (dose: 3.12 mg/kg/injection, schedule: Q04DX003 (ip), vehicle: saline with Tween-80) is reported as 105 % of control, the T/C (dose: 6.25 mg/kg/injection, schedule: Q04DX003 (ip), vehicle: saline with Tween-80) is reported as 113 % of control and the T/C (dose: 12.5 mg/kg/injection, schedule: Q04DX003 (ip), vehicle: saline with Tween-80) is reported as 113 % of control.

In the case of `CCN(CC)Cc1nccn1-c1ccc([N+](=O)[O-])cc1C(=O)c1ccccc1Cl`, the T/C [19] is reported as 100 % of control and the T/C [2] is reported as 118 % of control.

With `OC1(C#CC2(O)CCCCC2)CCCCC1` the T/C [18] was 96 % of control, the T/C [20] was 109 % of control and the T/C [1] was 100 % of control. For the same molecule, the T/C [3] was 109 % of control, the T/C [4] was 96 % of control and the T/C [6] was 100 % of control.

With `CN(C)c1cc(Br)c(C=O)cc1[N+](=O)[O-]` the T/C [3] was 95 % of control, the T/C [6] was 95 % of control and the T/C [9] was 100 % of control.

With `Cc1cc(N(CCC(=O)O)CCC(=O)O)ccc1/C=C/c1ccc2cc(Cl)ccc2[n+]1C` the T/C (dose: 12.5 mg/kg/injection, schedule: Q01DX001 (ip), vehicle: saline with Tween-80) was 96 % of control, the T/C (dose: 25.0 mg/kg/injection, schedule: Q01DX001 (ip), vehicle: saline with Tween-80) was 96 % of control and the T/C (dose: 50.0 mg/kg/injection, schedule: Q01DX001 (ip), vehicle: saline with Tween-80) was 94 % of control.

For `C1OCC2[CH2][Hg][S][Hg][CH2]C1O2`, the T/C (dose: 1.25 mg/kg/injection, schedule: Q01DX010 (ip), vehicle: saline) was 109 % of control, the T/C (dose: 2.5 mg/kg/injection, schedule: Q01DX010 (ip), vehicle: saline) was 104 % of control and the T/C (dose: 5.0 mg/kg/injection, schedule: Q01DX010 (ip), vehicle: saline) was 109 % of control. The T/C (dose: 10.0 mg/kg/injection, schedule: Q01DX010 (ip), vehicle: saline) was 122 % of control.

For `CSCCC1NC(=O)C(/C(C)=N\NC(N)=O)=C1O` (centres undefined), the T/C [10] was 108 % of control, the T/C [11] was 115 % of control and the T/C [12] was 92 % of control.

For `COc1cc2ccc3c(c2cc1OC)C=[N+](C)CC3`, the T/C [10] was 108 % of control, the T/C [15] was 118 % of control and the T/C [16] was 118 % of control. For the same molecule, the T/C [17] was 90 % of control.

With `O=C(O)C1C2CC1C(Cl)C2Cl` (centres undefined) the T/C [10] was 106 % of control, the T/C [11] was 106 % of control and the T/C [12] was 106 % of control.

For `CCOC(=O)CCC#N`, the T/C [19] was 100 % of control, the T/C [2] was 116 % of control and the T/C [8] was 99 % of control.

With `CC1(C)C2CC=C(C[P+](c3ccccc3)(c3ccccc3)c3ccccc3)C1C2` (centres undefined) the T/C (dose: 3.3 mg/kg/injection, schedule: Q01DX009 (ip), vehicle: saline sonified) was 120 % of control.

For `CCNNC(=O)[C@@H]1[C@H](c2cc(OC)c(OC)c(OC)c2)c2cc3c(cc2[C@H](O)[C@H]1CO)OCO3`, the T/C [21] was 109 % of control, the T/C [22] was 100 % of control and the T/C [10] was 116 % of control. For the same molecule, the T/C [19] was 122 % of control, the T/C [11] was 90 % of control and the T/C [13] was 108 % of control. For the same molecule, the T/C [12] was 90 % of control and the T/C [14] was 104 % of control.

In the case of `Cc1noc(N)c1[N+](=O)[O-]`, the T/C [22] is reported as 95 % of control, the T/C [19] is reported as 109 % of control and the T/C [2] is reported as 109 % of control.

With `CN(C)Cc1ccc([N+](=O)[O-])cc1` the T/C [21] was 116 % of control, the T/C [22] was 119 % of control and the T/C [19] was 104 % of control. For the same molecule, the T/C (dose: 50.0 mg/kg/injection, schedule: Q04DX003 (ip), vehicle: saline) was 107 % of control, the T/C [15] was 90 % of control and the T/C [16] was 107 % of control.

`[N-]=[N+]=CC(=O)CCC(N)C(=O)O` (centres undefined) was tested, and the T/C (dose: 0.03 mg/kg/injection, schedule: Q01DX010 (ip), vehicle: saline) was 113 % of control, the T/C (dose: 0.1 mg/kg/injection, schedule: Q01DX010 (ip), vehicle: saline) was 170 % of control and the T/C (dose: 0.1 mg/kg/injection, schedule: Q01DX010 (ip), vehicle: water) was 150 % of control. For the same molecule, the T/C (dose: 0.2 mg/kg/injection, schedule: Q01DX010 (ip), vehicle: saline) was 95 % of control and 100 % of control, the T/C (dose: 0.2 mg/kg/injection, schedule: Q01DX010 (ip), vehicle: water) was 190 % of control and the T/C (dose: 0.4 mg/kg/injection, schedule: Q01DX010 (ip), vehicle: water) was 155 % of control. For the same molecule, the T/C (dose: 0.6 mg/kg/injection, schedule: Q01DX010 (ip), vehicle: water) was 95 % of control and 120 % of control, the T/C (dose: 0.8 mg/kg/injection, schedule: Q01DX010 (ip), vehicle: water) was 100 % of control and the T/C (dose: 2.5 mg/kg/injection, schedule: Q02DX005 (oral), vehicle: other) was 163 % of control. The T/C (dose: 5.0 mg/kg/injection, schedule: Q02DX005 (oral), vehicle: other) was 159 % of control, the T/C (dose: 10.0 mg/kg/injection, schedule: Q02DX005 (oral), vehicle: other) was 186 % of control and the T/C (dose: 15.0 mg/kg/injection, schedule: Q02DX005 (oral), vehicle: other) was 218 % of control. The T/C (dose: 20.0 mg/kg/injection, schedule: Q02DX005 (oral), vehicle: other) was 86 % of control.

In the case of `COC(=O)C(CCC(=O)O)NC(=O)OCc1ccccc1` (centres undefined), the T/C (dose: 25.0 mg/kg/injection, schedule: Q04DX003 (ip), vehicle: Klucel (hydroxypropylcellulose) (HPC)) is reported as 104 % of control, the T/C [20] is reported as 113 % of control and the T/C [3] is reported as 95 % of control and 109 % of control.

In the case of `N=C(N)SCCC(=O)O`, the T/C [20] is reported as 109 % of control, the T/C [1] is reported as 100 % of control and the T/C [3] is reported as 100 % of control. The T/C [4] was 110 % of control, the T/C [6] was 109 % of control and the T/C [7] was 90 % of control.

— PubChem BioAssay AID328 (DTP/NCI, 2004)
